This assay addresses T1, human high molecular weight urokinase (Homo sapiens, UniProt P00749).
T1 construct: purchased Fujisawa Pharmaceutical Co., Ltd
Description: Urokinase inhibiting effect (chromogenic substrate S-2288). To be noted: 25 IU/ml urokinase, substrate S-2288, pH 7.5, 37° C., 30 minutes, A405. The format is biochemical. As to the method: Now in order to show the utility of the object compound (I) and pharmaceutically acceptable salts, the test datum on urokinase inhibiting effect of the representative compound of the compound (I) of this invention is shown in the following.
Test Compound was incubated at desired concentrations with 25 International Units (IU)/ml human high molecular weight urokinase (Fujisawa Pharmaceutical Co., Ltd.) and urokinase substrate (S-2288, H-D-Isoleucyl-L-prolyl-L-arginine-p-nitroaniline dihydrochloride; Chromagenix, Sweden; Japan distributors Daiichikagakuyakuhin Co., Ltd.) in a 100 μl final volume of 50 mM Tris, 100 mM NaCl, 1 mM Na2 EDTA, 0.01% (v/v) polyoxyethylenesorbitan monooleate (Tween 80), pH 7.5 (Buffer Z). Incubations were carried out at 37° C. for 30 minutes. Color was quantitated by measuring absorbance at 405 nm (A405) using EL312 Automated Microplate Reader.

Counter-ions that a name gives are not always drawn.

Consider `CCCC=C1CCCc2sc(C(=N)N)cc21` [Compound A, 2-Amidino-4-n-butylidene-4,5,6,7-tetrahydrobenzo[b]thiophene hydrochloride], for which half-maximal inhibition (IC50) required 470 nM.

Broadly, the IC50 is the concentration that gives 50% inhibition. A low value points to greater potency in that assay.

Source of the values: patent US6274619A, “Amidino substituted tetrahydrobenzo thiophene or furan derivatives and their use as urokinase inhibitors” (Fujisawa Pharmaceutical Co., Ltd., priority 1996, dated 2001).
